Experimental data taken from US20230212549A1, “COMPOUNDS COMPRISING A […] LIGAND AND USE THEREOF” (priority 2021, published 2023).
Numbered stars: 1 amine (or outer) side, 2 acyl side, 3 side chain; on linkers, the order of the positions; unused ones are H or OH. Bridge positions count the residues as written; N and C are the ends. Square brackets hold non-standard residues; d marks the D form. Peptide text beside a SMILES is read from it. * marks the point of attachment. TBMB(SCH2CH2NH-DOTA) = O=C(O)CN1CCN(CC(=O)O)CCN(CC(=O)NCCSCc2cc(C[*:1])cc(C[*:2])c2)CCN(CC(=O)O)CC1; Hexanoyl = CCCCCC(=O)*; Sar = CNCC(=O)O

Assays:
[1] = molecular target: T1, FAP-expressing human WI-38 fibroblasts (Homo sapiens, UniProt Q12884); test: Competitive FACS binding assay
T1 construct: FAP-expressing human WI-38 fibroblasts (ECACC) were cultured in EMEM; host or cells: WI-38 human fibroblasts
Experimental: Cells were analyzed in an Attune NxT flow cytometer. […] […].
Cells were analyzed in an Attune NxT flow cytometer. […]

[2] = molecular target: T2, Human recombinant FAP (Homo sapiens, UniProt Q12884); test: Surface plasmon resonance (Biacore) assay; format: binding; conditions: for pKD Category: Biacore assay
[3] = molecular target: T2, Human recombinant FAP; test: FRET-based FAP protease activity assay; format: biochemical; design: purchased R&D systems 3715-SE
[4] = in vivo; conditions: female, athymic nude, mouse, iv
[5] = pIC50 Category (Activity), FRET-based FAP protease activity assay, recombinant human FAP, 37° C.
[6] = pIC50 Category (Activity), FRET-peptide substrate, 37° C.

T1 sequence (Q12884 whole entry): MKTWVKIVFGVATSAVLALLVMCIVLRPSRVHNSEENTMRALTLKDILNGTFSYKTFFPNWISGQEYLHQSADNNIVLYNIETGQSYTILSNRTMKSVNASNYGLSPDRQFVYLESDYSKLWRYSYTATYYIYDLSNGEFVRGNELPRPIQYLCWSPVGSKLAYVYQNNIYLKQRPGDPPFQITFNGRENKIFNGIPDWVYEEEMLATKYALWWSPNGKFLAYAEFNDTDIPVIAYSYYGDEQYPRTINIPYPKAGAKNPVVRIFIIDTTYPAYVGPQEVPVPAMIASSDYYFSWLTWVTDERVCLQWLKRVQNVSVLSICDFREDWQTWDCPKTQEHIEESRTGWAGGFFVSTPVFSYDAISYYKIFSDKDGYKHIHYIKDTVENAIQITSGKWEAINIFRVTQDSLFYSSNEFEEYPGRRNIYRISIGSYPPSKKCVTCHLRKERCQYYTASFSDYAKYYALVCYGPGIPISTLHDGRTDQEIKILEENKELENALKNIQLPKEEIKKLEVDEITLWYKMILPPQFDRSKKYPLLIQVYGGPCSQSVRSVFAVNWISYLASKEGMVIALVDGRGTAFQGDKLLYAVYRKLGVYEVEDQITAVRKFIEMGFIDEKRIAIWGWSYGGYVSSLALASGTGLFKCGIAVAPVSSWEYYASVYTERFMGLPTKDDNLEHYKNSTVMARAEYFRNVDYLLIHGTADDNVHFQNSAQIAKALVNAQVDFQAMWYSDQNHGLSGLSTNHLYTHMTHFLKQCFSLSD
T2 sequence (Q12884 whole entry): as above

SMILES | IC50 [1] [nM] | Kd [2] [nM] | IC50 [3, 6] [nM] | other results
CCCCCC(=O)N[C@H]1CSCc2cc(CSCCNC(=O)CN3CCN(CC(=O)O)CCN(CC(=O)O)CCN(CC(=O)O)CC3)cc(c2)CSC[C@@H](C(=O)O)NC(=O)[C@H](Cc2ccccc2)NC(=O)[C@H](CCC(N)=O)NC(=O)[C@H]([C@@H](C)O)NC(=O)[C@@H]2CCCN2C(=O)CN(C)C1=O [3BP-3678, Hex-[Cys(tMeBn(DOTA-AET))-Nmg-Pro-Thr-Gln-Phe-Cys]-OH] (Hexanoyl-C[Sar]PTQFC-OH; linker 1-7 via TBMB(SCH2CH2NH-DOTA)) | < 10 | < 10 |  | IC50 [3, 5]: < 10 nM
CCCCC(=O)N[C@H]1CSCc2cc(CSCCNC(=O)CN3CCN(CC(=O)O)CCN(CC(=O)O)CCN(CC(=O)O)CC3)cc(c2)CSC[C@@H](C(=O)O)NC(=O)[C@H](Cc2ccccc2)NC(=O)[C@H](CCC(N)=O)NC(=O)[C@H]([C@@H](C)O)NC(=O)[C@@H]2CCCN2C(=O)[C@@H]2CCCN2C1=O [3BP-3910, Pent-[Cys(tMeBn(DOTA-AET))-Pro-Pro-Thr-Gln-Phe-Cys]-OH] | < 10 | < 10 | < 10 | pKD Category [2]: A (Category A stands for pKD values >8.0)
CCCCCC(=O)N[C@H]1CSCc2cc(CSCCNC(=O)COCCOCCNC(=O)CCC(C(=O)O)N3CCN(CC(=O)O)CCN(CC(=O)O)CC3)cc(c2)CSC[C@@H](C(=O)O)NC(=O)[C@H](Cc2ccccc2)NC(=O)[C@H](CCC(N)=O)NC(=O)[C@H]([C@@H](C)O)NC(=O)[C@@H]2CCCN2C(=O)[C@@H]2CCCN2C1=O (stereo partly drawn) [3BP-4251, Hex-[Cys-(tMeBn(NODAGA-O2Oc-AET))-Pro-Pro-Thr-Gln-Phe-Cys]-OH] | < 10 | < 10 | < 10 | 
CCCC[C@H](NC(=O)CCC(=O)NCCCOCCOCCOCCCNC(=O)CCC(C(=O)O)N1CCN(CC(=O)O)CCN(CC(=O)O)CC1)C(=O)N[C@H]1CSCc2cccc(c2)CSCC(C(=O)O)NC(=O)[C@H](Cc2ccccc2)NC(=O)[C@H](CCC(N)=O)NC(=O)[C@H]([C@@H](C)O)NC(=O)[C@@H]2CCCN2C(=O)[C@@H]2CCCN2C1=O (stereo partly drawn) [3BP-4714, NODAGA-Ttds-Nle-[Cys(3MeBn)-Pro-Pro-Thr-Glu-Phe-Cys]-OH] | 10 to 79.4 |  |  | tissue uptake at 0.25 h ([4]; blood pool surrogate (BPS)): 1.52 %ID/g; tissue uptake at 1 h ([4]; blood pool surrogate (BPS)): 0.65 %ID/g; tissue uptake at 3 h ([4]; blood pool surrogate (BPS)): 0.32 %ID/g; tissue uptake at 0.25 h ([4]; kidneys): 5 %ID/g; tissue uptake at 1 h ([4]; kidneys): 3.82 %ID/g; tissue uptake at 3 h ([4]; kidneys): 3.83 %ID/g; tissue uptake at 0.25 h ([4]; tumor): 5.15 %ID/g; tissue uptake at 1 h ([4]; tumor): 5.44 %ID/g; tissue uptake at 3 h ([4]; tumor): 5.49 %ID/g; IC50 ([3]; pIC50 Category (activity), Recombinant human FAP): 10 to 79.4 nM

The next lines start with results.

IC50 [1] [nM] | Kd [2] [nM] | IC50 [3, 6] [nM] | SMILES | other results
< 10 | < 10 |  | CCCCCC(=O)N[C@H]1CSCc2cc(CSCCNC(=O)CN3CCN(CC(=O)O)CCN(CC(=O)O)CCN(CC(=O)O)CC3)cc(c2)CSC[C@@H](C(=O)N(C)CC(=O)O)NC(=O)[C@H](Cc2ccccc2)NC(=O)[C@H](CCC(N)=O)NC(=O)[C@H]([C@@H](C)O)NC(=O)[C@@H]2CCCN2C(=O)[C@@H]2CCCN2C1=O [3BP-3659, Hex-[Cys(tMeBn(DOTA-AET))-Pro-Pro-Thr-Gln-Phe-Cys]-Nmg-OH] | IC50 [3, 5]: < 10 nM
< 10 | < 10 | < 10 | CCOCCC(=O)N[C@H]1CSCc2cc(CSCCNC(=O)CN3CCN(CC(=O)O)CCN(CC(=O)O)CCN(CC(=O)O)CC3)cc(c2)CSC[C@@H](C(=O)O)NC(=O)[C@H](Cc2ccccc2)NC(=O)[C@H](CCC(N)=O)NC(=O)[C@H]([C@@H](C)O)NC(=O)[C@@H]2CCCN2C(=O)[C@@H]2CCCN2C1=O [3BP-3918, EtOPr-[Cys(tMeBn(DOTA-AET))-Pro-Pro-Thr-Gln-Phe-Cys]-OH] | pKD Category [2]: A (Category A stands for pKD values >8.0)
 | 100 to 794 |  | CCCCCC(=O)N[C@H]1CSCc2cc(CSCCNC(=O)CCC(=O)NCCCOCCOCCOCCCNC(=O)CCC(=O)NCCCOCCOCCOCCCNC(=O)CCC(=O)NCCCOCCOCCOCCCNC(=O)CCC(=O)NCCCOCCOCCOCCCNC(=O)c3ccc4c(c3)C(=O)OC43c4ccc(N)c(S(=O)(=O)O)c4Oc4c3ccc(N)c4S(=O)(=O)O)cc(c2)CSC[C@@H](C(=O)O)NC(=O)[C@H](Cc2ccccc2)NC(=O)[C@H](CCC(N)=O)NC(=O)[C@H]([C@@H](C)O)NC(=O)[C@@H]2CCCN2C(=O)[C@@H]2CCCN2C1=O [3BP-4232, Hex--[C(tMeBn(AF488--Ttds--Ttds--Ttds--Ttds--AET))-PPTQFC]-OH] | 
